Values of other authors, collected in US6740517B2, “Incubation method for obtaining solid culture of Zang Zhi, solid culture obtained therefrom, processed products and use thereof” (priority 2001, dated 2004).

Experiments:
[1] = system: mouse with the acute hepatitis induced by CCl4
[2] = system: lymphoma cells of a p-388 mouse

## 3,11-dioxo-8,23-dien-26-oic acid
[1]
  GPT in the blood: reduce GPT

## C=C(CC[C@@H](C)[C@H]1CC[C@H]2C3=C(C(=O)C[C@]12C)[C@@]1(C)CCC(=O)[C@@H](C)[C@@H]1CC3=O)C(C)C(=O)O (stereo partly drawn) [Zhankuic acid A]
[2]
  inhibition to the lymphoma cells of a p-388 mouse: conspicuous inhibition
Blood platelets
  inhibition to agglutination of blood platelets: conspicuous inhibition
